Experimental data published in publication PMC12656327 (Pharmaceutics, 2025).
Where “and” joins values, the source holds several entries; their conditions need not be identical. Identical values can stand only once. Like-named read-outs stand apart in the source and are kept apart here.

Key:
[1] = tested on: AB1 (mouse malignant mesothelioma) cells; experiment: cells; settings: AB1, 72 h, read-out: IC50 AB1
[2] = tested on: JU77 (human malignant mesothelioma) cells; experiment: cells; settings: 72 h, read-out: IC50 JU77
[3] = tested on: MRC-5 (human embryonic lung fibroblast) cells; experiment: MTT cytotoxicity, MRC-5 cells, 72 h; assay type: cell-based; settings: MRC5, 72 h exposure
[4] = NO release, Griess assay (phosphate buffer pH 7.4 with L-cysteine); assay type: physicochemical; settings: for NO Released (%) 1 h: 1 h incubation, expressed as % NO2− (μmol/μmol), Griess assay, physiological conditions, furoxan 100 µM; for NO Released (%) 24 h: 24 h incubation; for NO Released (%) 24 h / NO Released (%) 48 h: % NO2− (μmol/μmol); for NO Released (%) 48 h: 48 h incubation; for NO-donor ranking (in words): among all tested compounds
AB1 cells [5] = experiment: NO release in vitro in AB1 cells (Griess reagent); assay type: cell-based, mouse; settings: 25 μM, 24 h, relative to untreated cells
[6] = tested on: JU77 (human malignant mesothelioma) cells; settings: for SF JU77 (selectivity factor): ratio of the IC50 value in MRC-5 to that in JU77
AB1 and JU77 cell lines [7] = experiment: cells; settings: MPM, 72 h, read-out: IC50 (cytotoxicity) in both MPM cell lines
[8] = tested on: AB1 (mouse malignant mesothelioma) cells
AB1 cells [9] = experiment: JC-1 assay of mitochondrial membrane potential; assay type: cell-based, mouse; settings: for mitochondrial membrane depolarization (in words): 25 µM; for JC-1 Aggregates / JC-1 Monomers: representative dot plot
AB1 and JU77 cell lines [10] = tested on: AB1 and JU77 cell lines
[11] = Stability in DMSO-d6 by 1H NMR spectroscopy; assay type: physicochemical; settings: DMSO-d6, 1H NMR spectra after 1, 20, 48 and 120 h
Description: For the synthesis of the target bis(1,2,4-oxadiazolyl)furoxans, we employed a synthetic approach based on the reaction of readily available furoxanylbis(amidoxime) 1c with in situ activated carboxylic acids, except for compound 2a, which was synthesized using orthoformate in the presence of boron trifluoride etherate. Specifically, activation of the corresponding carboxylic acid with 1,1′-carbonyldiimidazole, followed by the addition of bis(amidoxime) 1c and 1,4-diazabicyclo [2.2.2]octane (DABCO) as a base to promote the heterocyclization step, afforded the desired heterocyclic assemblies 2b–l (Scheme 1, Figures S1–S24). […] The stability of the synthesized heterocyclic compounds was further examined in DMSO-d6 via ^1H NMR spectroscopy. The representative compound 2j was completely stable in solution for at least 120 h. The corresponding set of ^1H NMR spectra recorded for 2j after 1, 20, 48, and 120 h is provided in the (supporting information (SI) Figure S25).
Figure S25. Stability of the representative compound 2j for 1 h, 20 h, 48 h and 120 h in DMSO -[d6] according to 1H NMR spectroscopy.
(1 picture or pasted object on this page, not shown here)

AB1 cells [12] = experiment: Annexin V/PI assay, flow cytometry; assay type: cell-based, mouse; settings: 25 µM, 24 h
[13] = set-up: method as in PMID 40006597; settings: % NO2− (μmol/μmol), cited from earlier work; for NO Released (%) 1 h: 1 h incubation; for NO Released (%) 24 h: 24 h incubation; for NO Released (%) 48 h: 48 h incubation
[14] = tested on: JU77 (human malignant mesothelioma) cells; set-up: method as in PMID 40006597; settings: MTT, 72 h exposure; cited from earlier work
[15] = tested on: AB1 (mouse malignant mesothelioma) cells; set-up: method as in PMID 40006597; settings: MTT, 72 h exposure; cited from earlier work
[16] = tested on: MRC-5 (human embryonic lung fibroblast) cells; set-up: method as in PMID 40006597; settings: MTT, 72 h exposure; cited from earlier work
[17] = positive control, 20 μM, 30 min

| SMILES | IC50 [1] | IC50 [2] | IC50 [3] | NO Released (%) 1 h [4] | NO Released (%) 24 h [4] | NO Released (%) 48 h [4] | intracellular NO release (in words) (AB1 cells [5]) | SF JU77 (selectivity factor) [6] | also measured |
| --- | --- | --- | --- | --- | --- | --- | --- | --- | --- |
| O=[N+]([O-])c1ccc(-c2nc(-c3no[n+]([O-])c3-c3noc(-c4ccc([N+](=O)[O-])cc4)n3)no2)cc1 [2b] | > 25 µM | > 25 µM | > 25 µM | 38 ± 3% | 46 ± 1% | 48 ± 2% | minimal NO release |  |  |
| O=[N+]([O-])c1cccc(-c2nc(-c3no[n+]([O-])c3-c3noc(-c4cccc([N+](=O)[O-])c4)n3)no2)c1 [2c] | 19.9 ± 4.3 µM | 7.3 ± 1 µM | 27.9 ± 4.6 µM | 37 ± 1% | 49 ± 2% | 63 ± 2% |  | 3.8 |  |
| O=[N+]([O-])c1ccccc1-c1nc(-c2no[n+]([O-])c2-c2noc(-c3ccccc3[N+](=O)[O-])n2)no1 [2d] | 11.2 ± 2 µM | 3 ± 0.4 µM | 16.8 ± 5.7 µM | 54 ± 14% | 69 ± 14% | 72 ± 13% | highest levels of intracellular NO | 5.7 | IC50 (AB1 and JU77 cell lines [7]): 3 to 14 µM |
| [O-][n+]1onc(-c2noc(-c3ccccc3)n2)c1-c1noc(-c2ccccc2)n1 [2e] | 33.9 ± 3.4 µM | 10.5 ± 0.5 µM | 17.7 ± 3.8 µM | 51 ± 10% | 61 ± 12% | 64 ± 2% | minimal NO release | 1.6 | cytotoxic effects in the AB1 cell line (in words) [8]: no cytotoxic effects |
| [O-][n+]1onc(-c2noc(-c3ccncc3)n2)c1-c1noc(-c2ccncc2)n1 [2f] | 8.5 ± 2.1 µM | 14.1 ± 4.1 µM | 29.9 ± 1.6 µM | 71 ± 15% | 94 ± 15% | 103 ± 14% | highest levels of intracellular NO and high | 2.1 | decrease of cytotoxicity in JU77 cells relative to 2a [6]: 1.6 fold; increase of cytotoxicity in AB1 cells relative to 2a [8]: 1.4 fold; IC50 (AB1 and JU77 cell lines [7]): 3 to 14 µM; mitochondrial membrane depolarization (in words) (AB1 cells [9]; 24 h): markedly higher and relatively comparable levels of depolarization; JC-1 Aggregates (AB1 cells [9]; 25 μM, 24 h): 87.6%; JC-1 Monomers (AB1 cells [9]; 25 μM, 24 h): 12.4%; NO-donor ranking (in words) [4]: most effective NO donors; total amount of released NO ([4]; with longer incubation periods): exceeded 100% |
| Cc1ccc(-c2nc(-c3no[n+]([O-])c3-c3noc(-c4ccc(C)cc4)n3)no2)cc1 [2h] | > 25 µM | 16 ± 3.9 µM | > 25 µM | 37 ± 5% | 52 ± 1% | 56 ± 1% | minimal NO release | >1.6 | cytotoxic effects in the AB1 cell line (in words) [8]: no cytotoxic effects; cytotoxicity (in words) (AB1 and JU77 cell lines [10]): lacked cytotoxic effects |
| COc1ccc(-c2nc(-c3no[n+]([O-])c3-c3noc(-c4ccc(OC)cc4)n3)no2)cc1 [2i] | > 25 µM | > 25 µM | > 25 µM | 75 ± 1% | 78 ± 5% | 89 ± 3% | minimal NO release |  | cytotoxic effects in the AB1 cell line (in words) [8]: no cytotoxic effects; cytotoxicity (in words) (AB1 and JU77 cell lines [10]): lacked cytotoxic effects; NO-donor ranking (in words) [4]: most effective NO donors |
| COc1ccc(-c2nc(-c3no[n+]([O-])c3-c3noc(-c4ccc(OC)c(OC)c4)n3)no2)cc1OC [2j] | 21.7 ± 4.5 µM | 19.7 ± 2.1 µM | 25.7 ± 8.7 µM | 35 ± 2% | 37 ± 3% | 39 ± 5% |  | 1.3 | time completely stable in solution [11]: at least 120 h |
| [O-][n+]1onc(-c2noc(-c3ccccc3Cl)n2)c1-c1noc(-c2ccccc2Cl)n1 [2k] | 15.5 ± 3 µM | 4.9 ± 1.2 µM | 7.8 ± 2.3 µM | 37 ± 5% | 41 ± 8% | 43 ± 7% | low |  | induction of apoptosis/necrosis (in words) (AB1 cells [12]): did not induce significant cancer cell death; mitochondrial membrane depolarization (in words) (AB1 cells [9]; 24 h): least mitochondrial damage; JC-1 Aggregates (AB1 cells [9]; 25 μM, 24 h): 96.3%; JC-1 Monomers (AB1 cells [9]; 25 μM, 24 h): 3.7% |
| NC(=O)c1c(CO)no[n+]1[O-] [CAS-1609, 3-carbamoyl-4-(hydroxymethyl)furoxan] |  |  |  |  |  |  |  |  | NO Released (%) 1 h [13]: 27% and 27 ± 3%; NO Released (%) 24 h [13]: 68 ± 6%; NO Released (%) 48 h [13]: 73 ± 6% |
| N#CC(C#N)=NNc1cccc(Cl)c1 [CCCP, carbonyl cyanide 3-chlorophenylhydrazone, reference compound] |  |  |  |  |  |  |  |  | JC-1 Aggregates (AB1 cells [9]; [17]): 30.1%; JC-1 Monomers (AB1 cells [9]; [17]): 69.9% |
| CCOc1no[n+]([O-])c1S(=O)(=O)c1ccccc1 [CHF-2363, 4-ethoxy-3-phenylsulfonylfuroxan] |  |  |  |  |  |  |  |  | NO Released (%) 1 h [13]: 26% and 26 ± 10%; NO Released (%) 24 h [13]: 71 ± 4%; NO Released (%) 48 h [13]: 77 ± 9% |
| N.N.[Cl][Pt][Cl] [Cisplatin, cisplatin] |  |  |  |  |  |  |  |  | IC50 [14]: 4.2 ± 0.5 µM; IC50 [15]: 5.8 ± 1 µM; IC50 [16]: 3.1 ± 1.2 µM |
